Like-named read-outs stand apart in the source and are kept apart here.
Experiments:
[1] = molecular target: T1, Recombinant GST-TAG-MASTL (Homo sapiens, UniProt Q96GX5); assay: HTRF-based kinase assay (HTRF KinEASE assay kit); assay type: biochemical; conditions: for activity at 1 µM: read-out: MASTL activity (%) HTRF (1 µM)
T1 construct: GST; purchased Thermo Fisher Scientific
T1 sequence (Q96GX5 1-879): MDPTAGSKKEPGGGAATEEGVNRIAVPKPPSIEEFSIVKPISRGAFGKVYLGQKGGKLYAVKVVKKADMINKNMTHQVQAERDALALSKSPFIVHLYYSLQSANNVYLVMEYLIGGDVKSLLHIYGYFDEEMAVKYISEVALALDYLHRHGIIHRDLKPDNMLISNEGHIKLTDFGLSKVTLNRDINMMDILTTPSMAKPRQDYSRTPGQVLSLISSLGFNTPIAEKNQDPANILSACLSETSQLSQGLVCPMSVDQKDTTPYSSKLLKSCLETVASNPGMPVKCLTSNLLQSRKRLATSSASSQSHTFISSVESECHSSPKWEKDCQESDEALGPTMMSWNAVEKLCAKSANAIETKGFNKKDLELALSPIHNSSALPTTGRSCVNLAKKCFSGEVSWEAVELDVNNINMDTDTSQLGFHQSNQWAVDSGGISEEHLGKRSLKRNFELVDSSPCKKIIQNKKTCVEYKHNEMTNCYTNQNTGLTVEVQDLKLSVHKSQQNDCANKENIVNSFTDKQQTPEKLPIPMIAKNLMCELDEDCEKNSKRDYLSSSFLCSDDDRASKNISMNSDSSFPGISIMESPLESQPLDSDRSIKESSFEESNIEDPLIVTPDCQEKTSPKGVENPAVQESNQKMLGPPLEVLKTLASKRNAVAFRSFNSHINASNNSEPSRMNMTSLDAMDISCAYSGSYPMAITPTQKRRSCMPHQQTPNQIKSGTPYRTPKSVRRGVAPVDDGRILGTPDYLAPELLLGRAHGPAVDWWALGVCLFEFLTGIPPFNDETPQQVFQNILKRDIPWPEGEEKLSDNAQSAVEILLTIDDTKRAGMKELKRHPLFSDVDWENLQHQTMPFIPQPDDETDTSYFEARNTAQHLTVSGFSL
From the text: Recombinant GST-TAG-MASTL (Thermo Fisher Scientific, MA, USA) was used for HTRF-based kinase assays. The HTRF KinEASE assay kit (CisBio, MA, USA) was used according to the manufacturer's instructions.

[2] = test system: MCF7 breast cancer cell lines; assay: Cell viability analysis, WST-8 assay, MCF7; conditions: Homo sapiens, MCF7, 72 h; for viability at 10 µM: read-out: Cell viability (%) WST-8, MCF7, footnote b: concentration 10 µM, 72 hours; for IC50: read-out: IC50 Cell viability (MCF7)
Method: MCF7 breast cancer cell lines and MCF10A normal breast cancer cell lines were treated with serial dilutions of the compounds of the present invention ranging from 1 µM to 15.63 nM for 72 hours. Cell viability was measured by the WST-8 assay (Cyto XTM cell viability assay kit; LPS solution, Daejeon, Korea) according to the manufacturer's instructions.

[3] = test system: pENSA; assay: pENSA level by immunofluorescence (described method: in vitro kinase analysis with GST-tag-MASTL and His-tag-ENSA); assay type: cell-based; conditions: for pENSA (%) Immunofluor ecense (1 µM): compound 1 µM
Method: Two recombinant GST-tag-MASTL (Thermo Fisher Scientific) and His-tag-ENSA (Sino Biological Inc., Beijing, China) were used for in vitro kinase analysis. In vitro kinase analysis was performed as described in the literature [Front Oncol 2020, 10, 571601, 39-202021-10-20doi:10.3389/fonc.2020.571601.].
Phosphorylated ENSA (pENSA), which is activated by phosphorylation by MASTL, can be utilized as a biomarker as it is expected that its activity will be inhibited along with the inhibition of MASTL. In the cell viability assay, MCF7 refers to a breast cancer cell line, and MCF10A refers to a normal breast […] cell line.

[4] = read-out: MASTL activity (%) HTRF
[5] = footnote b: concentration 10 µM
[6] = read-out: Cell viability (%) WST-8, MCF7 (1 µM), compound 1 µM, 72 hours
[7] = HTRF, read-out: IC50(nM) MASTL activity
[8] = read-out: Cell viability (%) WST-8, MCF7 (1 µM)
[9] = footnote b: concentration 10 µM, read-out: MASTL activity (%) HTRF

| Compound | viability at 10 µM [2] [%] | pENSA (%) Immunofluor ecense [3, 5] | IC50 [1, 7] [nM] | activity at 10 µM [1, 9] [%] | IC50 [2] [nM] | IC50 ([3]; unit µM, read-out: IC50 pENSA) [nM] | other results |
| --- | --- | --- | --- | --- | --- | --- | --- |
| Cc1nn(CC(C)C)c(C)c1Nc1nc(Nc2ccc(CC#N)cc2)nc2ccccc12 [compound 3b, 2-(4-((4-((1-isobutyl-3,5-dimethyl-1G-pyrazol-4-yl)amino)quinazolin-2-yl)amino)phenyl)acetonitrile] | 55.5 | 44.3^b % | – | – | – | – | activity at 10 µM [1, 4]: 123% |
| Cc1n[nH]cc1Nc1nc(Nc2ccc(CC#N)cc2)nc2ccccc12 [compound 3e, 2-(4-((4-((3-methyl-1G-pyrazol-4-yl)amino)quinazolin-2-yl)amino)phenyl)acetonitrile] | 108 | 102^b % | – | – | – | – | activity at 10 µM [1, 4]: 100% |
| N#CCc1ccc(Nc2nc(Nc3cc[nH]n3)c3ccccc3n2)cc1 [compound 3o, 2-(4-((4-((1G-pyrazol-3-yl)amino)quinazolin-2-yl)amino)phenyl)acetonitrile] | – | – | – | – | – | – | IC50 [1]: 2600 nM; activity at 1 µM [1]: 102%; viability at 1 µM [2, 6]: 108% |
| Cc1cc(Nc2nc(Nc3ccc(CC#N)cc3)nc3ccccc23)n[nH]1 [compound 3p, 2-(4-((4-((5-methyl-1G-pyrazol-3-yl)amino)quinazolin-2-yl)amino)phenyl)acetonitrile] | – | – | 330 | – | – | – | activity at 1 µM ([1]; compound 1 µM): 53.1%; viability at 1 µM [2, 8]: 106%; pENSA (%) Immunofluor ecense (1 µM) [3]: 27.5%; IC50 ([3]; read-out: IC50(nM) pENSA): 239 nM |
| N#CCc1ccc(Nc2nc(Nc3cc(Br)[nH]n3)c3ccccc3n2)cc1 [compound 3q, 2-(4-((4-((5-bromo-1G-pyrazol-3-yl)amino)quinazolin-2-yl)amino)phenyl)acetonitrile] | – | – | – | – | – | – | IC50 [1]: 640 nM; activity at 1 µM [1]: 63.1%; viability at 1 µM [2, 6]: 105% |
| COc1cc(Nc2nc(Nc3ccc(CC#N)cc3)nc3ccccc23)n[nH]1 [compound 3r, 2-(4-((4-((5-methoxy-1G-pyrazol-3-yl)amino)quinazolin-2-yl)amino)phenyl)acetonitrile] | – | – | – | – | – | – | IC50 [1]: 816 nM; activity at 1 µM [1]: 67.2%; viability at 1 µM [2, 6]: 98.3% |
| N#CCc1ccc(Nc2nc(Nc3n[nH]c4ccccc34)c3ccccc3n2)cc1 [compound 3s, 2-(4-((4-((1G-indazol-3-yl)amino)quinazolin-2-yl)amino)phenyl)acetonitrile] | – | – | – | – | – | – | IC50 ([1]; HTRF, unit µM, read-out: IC50 MASTL activity): 4400 nM; activity at 1 µM ([1]; compound 1 µM): 102%; viability at 1 µM [2, 8]: 100%; pENSA (%) Immunofluor ecense (1 µM) [3]: 60.6% |
| N#CCc1ccc(Nc2nc(Nc3ccccc3OCc3ccccc3)c3ccccc3n2)cc1 [compound 3t, 2-(4-((4-((2-(benzyloxy)phenyl)amino)quinazolin-2-yl)amino)phenyl)acetonitrile] | – | – | – | – | – | – | activity at 1 µM ([1]; compound 1 µM): 120%; viability at 1 µM [2, 6]: 45.4% |
| N#CCc1ccc(Nc2nc(Nc3ccccc3O)c3ccccc3n2)cc1 [compound 3u, 2-(4-((4-((2-hydroxyphenyl)amino)quinazolin-2-yl)amino)phenyl)acetonitrile] | – | – | – | – | – | – | activity at 1 µM ([1]; compound 1 µM): 121%; viability at 1 µM [2, 6]: 49.3%; IC50 ([3]; read-out: IC50(nM) pENSA): 678 nM |
| O=S(=O)(c1ccc(-c2ccccc2)cc1)N1CC2CC1CN2c1nc(Nc2cc(C3CC3)[nH]n2)c2ccccc2n1 (centres unmarked) [compound 15aa, 2-(5-([1,1'-biphenyl]-4-ylsulfonyl)-2,5-diazabicyclo[2.2.1]heptan-2-yl)-M-(5-cyclopropyl-1G-pyrazol-3-yl)quinazolin-4-amine] | – | – | – | – | – | – | activity at 1.1 µM [1, 4]: 55.5%; viability at 1.1 µM ([2]; read-out: Cell viability (%) WST-8, MCF7, footnote d: concentration 1.1 µM, 72 hours): 87.5%; pENSA (%) Immunofluor ecense ([3]; footnote d: concentration 1.1 µM): 61.2^d % |
| O=S(=O)(c1cccs1)N1CC2CC1CN2c1nc(Nc2cc(C3CC3)[nH]n2)c2ccccc2n1 (centres unmarked) [compound 15ab, M-(5-cyclopropyl-1G-pyrazol-3-yl)-2-(5-(thiophen-2-ylsulfonyl)-2,5-diazabicyclo[2.2.1]heptan-2-yl)quinazolin-4-amine] | 3.9 | 0.4^b % | 222 | 17.3 | 2400 | 2500 | – |
| O=S(=O)(C1CC1)N1CC2CC1CN2c1nc(Nc2cc(C3CC3)[nH]n2)c2ccccc2n1 (centres unmarked) [compound 15i, M-(5-cyclopropyl-1G-pyrazol-3-yl)-2-(5-(cyclopropylsulfonyl)-2,5-diazabicyclo[2.2.1]heptan-2-yl)quinazolin-4-amine] | 5.2 | 0.2^b % | 310 | 15.5 | 2000 | 2100 | – |
| O=S(=O)(C1CCCCC1)N1CC2CC1CN2c1nc(Nc2cc(C3CC3)[nH]n2)c2ccccc2n1 (centres unmarked) [compound 15k, 2-(5-(cyclohexylsulfonyl)-2,5-diazabicyclo[2.2.1]heptan-2-yl)-M-(5-cyclopropyl-1G-pyrazol-3-yl)quinazolin-4-amine] | 12.7 | 0.5^b % | 152 | 11.3 | 4100 | 3500 | – |
| O=S(=O)(Cc1ccccc1)N1CC2CC1CN2c1nc(Nc2cc(C3CC3)[nH]n2)c2ccccc2n1 (centres unmarked) [compound 15l, 2-(5-(benzylsulfonyl)-2,5-diazabicyclo[2.2.1]heptan-2-yl)-M-(5-cyclopropyl-1G-pyrazol-3-yl)quinazolin-4-amine] | 2.4 | 1.9^b % | 226 | 18.1 | 2700 | 3700 | – |
| O=S(=O)(c1c(F)cccc1F)N1CC2CC1CN2c1nc(Nc2cc(C3CC3)[nH]n2)c2ccccc2n1 (centres unmarked) [compound 15p, M-(5-cyclopropyl-1G-pyrazol-3-yl)-2-(5-((2,6-difluorophenyl)sulfonyl)-2,5-diazabicyclo[2.2.1]heptan-2-yl)quinazolin-4-amine] | 7.4 | 2.6^b % | 331 | 180 | 4100 | 4400 | – |
| COc1cccc(S(=O)(=O)N2CC3CC2CN3c2nc(Nc3cc(C4CC4)[nH]n3)c3ccccc3n2)c1 (centres unmarked) [compound 15r, M-(5-cyclopropyl-1G-pyrazol-3-yl)-2-(5-((3-methoxyphenyl)sulfonyl)-2,5-diazabicyclo[2.2.1]heptan-2-yl)quinazolin-4-amine] | 19 | 0.2^b % | 492 | 22.7 | 4300 | 5500 | – |
| CC(=O)c1ccc(S(=O)(=O)N2CC3CC2CN3c2nc(Nc3cc(C4CC4)[nH]n3)c3ccccc3n2)cc1 (centres unmarked) [compound 15s, 1-(4-((5-(4-((5-cyclopropyl-1G-pyrazol-3-yl)amino)quinazolin-2-yl)-2,5-diazabicyclo[2.2.1]heptan-2-yl)sulfonyl)phenyl)ethan-1-one] | 5.1 | 0.2^b % | 354 | 19.2 | 2900 | 2200 | – |
| Cc1cccc(S(=O)(=O)N2CC3CC2CN3c2nc(Nc3cc(C4CC4)[nH]n3)c3ccccc3n2)c1 (centres unmarked) [compound 15t, M-(5-cyclopropyl-1G-pyrazol-3-yl)-2-(5-(/ -tolylsulfonyl)-2,5-diazabicyclo[2.2.1]heptan-2-yl)quinazolin-4-amine] | 35.5 | 0^b % | 563 | 15.5 | 7900 | 6200 | – |

Reference: patent publication EP4786466A1, “QUINAZOLINE DERIVATIVE, SALT THEREOF, AND PHARMACEUTICAL COMPOSITION COMPRISING SAME AS ACTIVE INGREDIENT” (Korea Research Institute of Chemical Technology, priority 2023, dated 2025)
